Biological target: T1, Recombinant human GR (Homo sapiens, UniProt P04150)
T1 construct: purchased Invitrogen P2816
T1 sequence (P04150 1-777): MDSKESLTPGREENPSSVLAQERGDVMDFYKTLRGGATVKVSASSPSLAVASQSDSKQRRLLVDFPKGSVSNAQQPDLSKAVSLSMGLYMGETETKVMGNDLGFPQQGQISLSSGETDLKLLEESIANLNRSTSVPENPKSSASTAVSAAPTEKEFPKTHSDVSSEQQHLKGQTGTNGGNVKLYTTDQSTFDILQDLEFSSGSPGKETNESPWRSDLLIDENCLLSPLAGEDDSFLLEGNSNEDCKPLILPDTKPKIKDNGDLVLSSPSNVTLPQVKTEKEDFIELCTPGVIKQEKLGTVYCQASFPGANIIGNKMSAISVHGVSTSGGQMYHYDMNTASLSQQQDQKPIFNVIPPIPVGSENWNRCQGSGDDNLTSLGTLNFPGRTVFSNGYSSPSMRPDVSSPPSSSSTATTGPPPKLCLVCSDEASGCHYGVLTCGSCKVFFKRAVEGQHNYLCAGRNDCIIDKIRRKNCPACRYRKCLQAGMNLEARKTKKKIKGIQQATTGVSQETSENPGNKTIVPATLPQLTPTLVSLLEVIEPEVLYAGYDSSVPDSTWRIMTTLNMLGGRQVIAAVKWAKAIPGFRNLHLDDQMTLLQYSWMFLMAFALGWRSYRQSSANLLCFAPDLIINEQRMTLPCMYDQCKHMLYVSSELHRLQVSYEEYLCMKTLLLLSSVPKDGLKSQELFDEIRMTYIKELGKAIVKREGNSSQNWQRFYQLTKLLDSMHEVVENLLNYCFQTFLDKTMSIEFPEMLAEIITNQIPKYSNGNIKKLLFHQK
Test: GR competitor assay by fluorescence polarization (GR binding ratio)
Conditions: positive control 2 mM dexamethasone, a GR binding ratio of 100% or more is indicated by 100%
Experimental: 1. Evaluation Test for Binding Activity to Glucocorticoid Receptor (hereinafter referred to as “GR”)
In order to evaluate a binding activity to GR, a receptor competitor assay was carried out by a fluorescence polarization method. In the assay, a GR competitor assay kit (manufactured by Invitrogen, cat No. P2816) was used, and a procedure was carried out according to the protocol attached to the kit. Hereinafter, the specific method will be described.
GR screening buffer: A buffer containing 10 mM potassium phosphate (pH 7.4), 20 mM sodium molybdate (Na2MoO4), 0.1 mM ethylene diamine tetraacetic acid (EDTA), 5 mM dithiothreitol (DTT), 0.1 mM stabilizing peptide and 2% dimethylsulfoxide was prepared.
4×GS1 solution: Fluormone™ GS1, which is a fluorescent glucocorticoid ligand, was diluted with GR screening buffer, whereby a 4 nM solution was prepared.
4×GR solution: Recombinant human GR was diluted with GR screening buffer, whereby a 16 nM solution was prepared.
After a test compound was dissolved in dimethylsulfoxide, the resulting solution was diluted with GR screening buffer, whereby a 20 μM test compound solution was prepared.
1) The test compound solution was added in an amount of 25 μL or 10 μL into each well of a 96-well or 384-well plate, and then, 4×GS1 solution and 4×GR solution were added in an amount of 12.5 μL or 5 μL into each well, respectively.
2) The plate was incubated in a dark place at room temperature for 2 to 4 hours.
3) By using a multimode plate reader, Analyst™ HT (manufactured by LJL Biosystems), fluorescence polarization of each well was measured. As the blank, a well containing GR screening buffer in place of the test compound and 4×GS1 solution was used.
4) The same procedure as that in the above 1) to 3) was carried out except that GR screening buffer was used in place of the test compound solution, and the obtained result was taken as the negative control.
5) The same procedure as that in the above 1) to 3) was carried out except that 2 mM dexamethasone was used in place of the test compound solution, and the obtained result was taken as the positive control.
A GR binding ratio (%) was calculated from the following equation.
GR binding ratio (%)=100×[1−(fluorescence polarization of test compound solution−fluorescence polarization of positive control solution)/(fluorescence polarization of negative control solution−fluorescence polarization of positive control solution)]

GR Binding ratio (%)	Structure (SMILES)
≥ 100	COc1ccc(C(=O)OCc2c(-c3ccc(F)cc3OC)ccc3c2C(C)=CC(C)(C)N3)cc1 [Compound 1-19, 6-(4-Fluoro-2-methoxyphenyl)-5-(4-methoxybenzoyloxymethyl)-2,2,4-trimethyl-1,2-dihydroquinoline]
82	COc1cc(F)ccc1-c1ccc2c(c1COC(=O)c1cccs1)C(C)=CC(C)(C)N2 [Compound 1-21, 6-(4-Fluoro-2-methoxyphenyl)-5-[(thiophene-2-yl)carbonyloxymethyl]-2,2,4-trimethyl-1,2-dihydroquinoline]
≥ 100	COc1cc(F)ccc1-c1ccc2c(c1COC(=O)c1ccccc1C)C(C)=CC(C)(C)N2 [Compound 1-46, 6-(4-Fluoro-2-methoxyphenyl)-5-(2-methylbenzoyloxymethyl)-2,2,4-trimethyl-1,2-dihydroquinoline]
97	COc1cc(F)ccc1-c1ccc2c(c1COc1cccc(C)c1)C(C)=CC(C)(C)N2 [Compound 3-21, 6-(4-Fluoro-2-methoxyphenyl)-5-(3-methylphenoxymethyl)-2,2,4-trimethyl-1,2-dihydroquinoline]
99	COc1cc(F)ccc1-c1ccc2c(c1COc1ccccc1C)C(C)=CC(C)(C)N2 [Compound 3-22, 6-(4-Fluoro-2-methoxyphenyl)-5-(2-methylphenoxymethyl)-2,2,4-trimethyl-1,2-dihydroquinoline]
≥ 100	CCc1ccccc1OCc1c(-c2ccc(F)cc2OC)ccc2c1C(C)=CC(C)(C)N2 [Compound 3-33, 5-(2-Ethylphenoxymethyl)-6-(4-fluoro-2-methoxyphenyl)-2,2,4-trimethyl-1,2-dihydroquinoline]
98	COc1cc(F)ccc1-c1ccc2c(c1COc1cc(C)cc(C)c1C)C(C)=CC(C)(C)N2 [Compound 3-44, 6-(4-Fluoro-2-methoxyphenyl)-5-(2,3,5-trimethylphenoxymethyl)-2,2,4-trimethyl-1,2-dihydroquinoline]
98	COc1cc(F)c(F)cc1-c1ccc2c(c1COc1ccccc1C)C(C)=CC(C)(C)N2 [Compound 3-45, 6-(4,5-Difluoro-2-methoxyphenyl)-5-(2-methylphenoxymethyl)-2,2,4-trimethyl-1,2-dihydroquinoline]
≥ 100	COc1cc(F)ccc1-c1ccc2c(c1COc1cc(F)ccc1C)C(C)=CC(C)(C)N2 [Compound 3-48, 6-(4-Fluoro-2-methoxyphenyl)-5-(5-fluoro-2-methylphenoxymethyl)-2,2,4-trimethyl-1,2-dihydroquinoline]
98	COc1cc(F)ccc1-c1ccc2c(c1COc1cc(Cl)ccc1C)C(C)=CC(C)(C)N2 [Compound 3-56, 6-(4-Fluoro-2-methoxyphenyl)-5-(5-chloro-2-methylphenoxymethyl)-2,2,4-trimethyl-1,2-dihydroquinoline]
98	COc1cc(F)c(F)cc1-c1ccc2c(c1COc1cc(F)ccc1C)C(C)=CC(C)(C)N2 [Compound 3-57, 6-(4,5-Difluoro-2-methoxyphenyl)-5-(5-fluoro-2-methylphenoxymethyl)-2,2,4-trimethyl-1,2-dihydroquinoline]
≥ 100	COc1cc(F)ccc1-c1ccc2c(c1COc1cc(C)ccc1C)C(C)=CC(C)(C)N2 [Compound 3-58, 5-(2,5-Dimethylphenoxymethyl)-6-(4-fluoro-2-methoxyphenyl)-2,2,4-trimethyl-1,2-dihydroquinoline]
≥ 100	COc1ccc(C)cc1OCc1c(-c2ccc(F)cc2OC)ccc2c1C(C)=CC(C)(C)N2 [Compound 3-59, 6-(4-Fluoro-2-methoxyphenyl)-5-(2-methoxy-5-methylphenoxymethyl)-2,2,4-trimethyl-1,2-dihydroquinoline]
≥ 100	COc1ccc([N+](=O)[O-])cc1OCc1c(-c2ccc(F)cc2OC)ccc2c1C(C)=CC(C)(C)N2 [Compound 3-61, 6-(4-Fluoro-2-methoxyphenyl)-5-(2-methoxy-5-nitrophenoxymethyl)-2,2,4-trimethyl-1,2-dihydroquinoline]

Reference: patent US8017775B2, “1-2-dihydroquinoline derivative having glucocorticoid receptor binding activity” (Santen Pharmaceutical Co., Ltd., priority 2005, dated 2011)
